# Values of other authors, collected in patent publication US20160045465A1, “THERAPEUTIC FORMULATIONS FOR THE TREATMENT OF COLD AND FLU-LIKE SYMPTOMS” (Kingsway Pharmaceuticals Inc., priority 2007, published 2016).
# Counter-ions that a name gives are not always drawn. Like-named read-outs stand apart in the source and are kept apart here.
# What was measured:
# [1] = in vivo
# [2] = not given; remark: listed apart in the source
# [3] = children, ibuprofen suspension, oral
# [4] = oral, 30 mg as tablets or oral solution
compound,measurement,setting,value
"CC(C)Cc1ccc(C(C)C(=O)O)cc1 (centres unmarked) [ibuprofen, 2-[4-(2-methylpropyl)phenyl]propanoic acid]",time to reach maximal plasma concentration,conventional tablets,approximately 120 minutes
same,time until excretion is essentially complete,following oral administration,≤ 24 h
same,fraction of an oral dose absorbed from the GI tract,"in vivo, po",Approximately 80%
same,reduction of peak plasma concentrations when administered with food,with food,30-50%
same,change of time to achieve peak plasma concentrations when administered with food,"with food, given as 'reduced by'",30 to 60 min
same,onset of antipyretic effect,fever; [3],≤ 1 h
same,time of peak antipyretic effect,fever; [3],2 to 4 h
same,duration of antipyretic effect,fever; single ibuprofen suspension doses of 10-mg/kg,up to 8 hours
CNC[C@H](O)c1cccc(O)c1 [phenylephrine],elimination half-life,in vivo,2 to 3 h
same,bioavailability following oral administration,oral,approximately 38%
same,time of peak serum concentrations,oral,0.75 to 2.0 h
same,duration of nasal decongestion,nasal congestion; oral phenylephrine,2 to 4 h
same,onset of nasal decongestion,nasal congestion; oral phenylephrine,15 to 20 min
same,efficacy compared with pseudoephedrine,[1],less efficacious than pseudoephedrine
CN[C@@H](C)[C@@H](O)c1ccccc1 [pseudoephedrine hydrochloride],duration of nasal decongestion,nasal congestion; 120 mg in extended-release capsules,up to 12 hours
same,duration of nasal decongestion,nasal congestion; oral administration of 60 mg,8 h
same,duration of nasal decongestion,nasal congestion; [4],4 to 6 h
same,onset of nasal decongestion,nasal congestion; [4],≤ 30 min
CN[C@@H](C)[C@@H](O)c1ccccc1 [pseudoephedrine],time to peak plasma concentrations,60-mg dose as an oral solution,1.39 to 2.0 h
same,time to peak plasma concentrations,120-mg dose as an oral solution,1.84 to 1.97 h
same,time to peak plasma concentrations,extended-release products,3.8 to 6.1 h
same,fraction of a dose excreted unchanged in urine,in vivo,55-96%
same,elimination half-life,urinary pH 5,3 to 6 h
same,elimination half-life,urinary pH 5.8,5 to 8 h
same,elimination half-life,urinary pH 8,9 to 16 h
CNC[C@H](O)c1cccc(O)c1 [phenylephrine hydrochloride],pKa,[2],8.86
"CC(=O)Nc1ccc(O)cc1 [acetaminophen, N-(4-hydroxyphenyl)ethanamide]","fraction in the body undergoing conjugation (glucuronic acid, sulphuric acid)",in vivo,80-85%
same,plasma half-life,in vivo,1.2 to 3.0 h
same,time to peak plasma concentrations,oral administration of immediate release acetaminophen preparations,0.167 to 1 h
